# Source: patent US6355799B1, “Substituted benzene compounds, process for their preparation, and herbicidal and defoliant compositions containing them” (ISK Americas Incorporated, priority 1997, dated 2002)
# Legend:
# Type in all cases: in vivo
# [1] = tested on: redroot pigweed (Amaranthus retroflexus, AMARE); test: Pre-emerge test, greenhouse herbicide activity screening; details: for Pre-emerge Herbicidal Activity AMARE (phytotoxicity rating, scale 0-100): rated 14 days after application, 0 = no damage, 100 = complete death
# Method in brief: (§1)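 Rating: 0–100 visual injury, 14 DAA. Application: acetone, 187 l/ha, 15–1000 g ai/ha, flat-fan track sprayer with nozzle 40–45 cm above soil or canopy. Post-emerge runs used 0.25% v/v surfactant on 2–3 leaf plants.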
# [2] = tested on: barnyardgrass (Echinochloa crus-galli, ECHCG); test: as above; details: for Pre-emerge Herbicidal Activity ECHCG (phytotoxicity rating, scale 0-100): rated 14 days after application, 0 = no damage, 100 = complete death
# Method in brief: as §1
# [3] = tested on: green foxtail (Setaria viridis, SETVI); test: as above; details: for Pre-emerge Herbicidal Activity SETVI (phytotoxicity rating, scale 0-100): rated 14 days after application, 0 = no damage, 100 = complete death
# Method in brief: as §1
# [4] = tested on: ivyleaf morningglory (Ipomoea hederacea, IPOHE); test: as above; details: for Pre-emerge Herbicidal Activity IPOHE (phytotoxicity rating, scale 0-100): rated 14 days after application, 0 = no damage, 100 = complete death
# Method in brief: as §1
# [5] = tested on: johnsongrass (Sorghum halepense, SORHA); test: as above; details: for Pre-emerge Herbicidal Activity SORHA (phytotoxicity rating, scale 0-100): rated 14 days after application, 0 = no damage, 100 = complete death
# Method in brief: as §1
# [6] = tested on: lambsquarters (Chenopodium album, CHEAL); test: as above; details: for Pre-emerge Herbicidal Activity CHEAL (phytotoxicity rating, scale 0-100): rated 14 days after application, 0 = no damage, 100 = complete death
# Method in brief: as §1
# [7] = tested on: large crabgrass (Digitaria sanguinalis, DIGSA); test: as above; details: for Pre-emerge Herbicidal Activity DIGSA (phytotoxicity rating, scale 0-100): rated 14 days after application, 0 = no damage, 100 = complete death
# Method in brief: as §1
# [8] = tested on: sicklepod (Cassia obtusifolia, CASOB); test: as above; details: for Pre-emerge Herbicidal Activity CASOB (phytotoxicity rating, scale 0-100): rated 14 days after application, 0 = no damage, 100 = complete death
# Method in brief: as §1
# [9] = tested on: velvetleaf (Abutilon theophrasti, ABUTH); test: as above; details: for Pre-emerge Herbicidal Activity ABUTH (phytotoxicity rating, scale 0-100): rated 14 days after application, 0 = no damage, 100 = complete death
# Method in brief: as §1
# [10] = tested on: field corn (Zea mays L., var. Dekalb 535, CORN); test: Pre-emerge test, crop safety; details: for Pre-emerge crop damage CORN (phytotoxicity rating, scale 0-100): rated 14 days after application, 0 = no damage, 100 = complete death
# Method in brief: (§2)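 Applied at 15–1000 g ai/ha from acetone in 187 l/ha spray volume. Post-emergence applications included 0.25% v/v non-ionic surfactant and reached plants sown 8–21 days before. Pre-emergence applications were incorporated by surface watering. Efficacy or crop damage was rated on a 0–100 scale after 14 days.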
# [11] = tested on: upland rice (Oryza sp., var. Tebonnet, RICE); test: Pre-emerge test, crop safety; details: for Pre-emerge crop damage RICE (phytotoxicity rating, scale 0-100): rated 14 days after application, 0 = no damage, 100 = complete death
# Method in brief: as §2
# [12] = tested on: barnyardgrass (Echinochloa crus-galli, ECHCG); test: Post-emerge test, greenhouse herbicide activity screening; details: 14 days after application; for Post-emerge Herbicidal Activity ECHCG: phytotoxicity rating 0-100 (0 no damage, 100 complete death); for phytotoxicity rating ECHCG: post-emerge, rating scale 0-100
# Method in brief: as §1
# [13] = tested on: green foxtail (Setaria viridis, SETVI); test: as above; details: 14 days after application; for Post-emerge Herbicidal Activity SETVI: phytotoxicity rating 0-100 (0 no damage, 100 complete death); for phytotoxicity rating SETVI: post-emerge, rating scale 0-100
# Method in brief: as §1
# [14] = tested on: ivyleaf morningglory (Ipomoea hederacea, IPOHE); test: as above; details: 14 days after application; for Post-emerge Herbicidal Activity IPOHE: phytotoxicity rating 0-100 (0 no damage, 100 complete death); for phytotoxicity rating IPOHE: post-emerge, rating scale 0-100
# Method in brief: as §1
# [15] = tested on: johnsongrass (Sorghum halepense, SORHA); test: as above; details: 14 days after application; for Post-emerge Herbicidal Activity SORHA: phytotoxicity rating 0-100 (0 no damage, 100 complete death); for phytotoxicity rating SORHA: post-emerge, rating scale 0-100
# Method in brief: as §1
# [16] = tested on: lambsquarters (Chenopodium album, CHEAL); test: as above; details: 14 days after application; for Post-emerge Herbicidal Activity CHEAL: phytotoxicity rating 0-100 (0 no damage, 100 complete death); for phytotoxicity rating CHEAL: post-emerge, rating scale 0-100
# Method in brief: as §1
# [17] = tested on: large crabgrass (Digitaria sanguinalis, DIGSA); test: as above; details: 14 days after application; for Post-emerge Herbicidal Activity DIGSA: phytotoxicity rating 0-100 (0 no damage, 100 complete death); for phytotoxicity rating DIGSA: post-emerge, rating scale 0-100
# Method in brief: as §1
# [18] = tested on: redroot pigweed (Amaranthus retroflexus, AMARE); test: as above; details: 14 days after application; for Post-emerge Herbicidal Activity AMARE: phytotoxicity rating 0-100 (0 no damage, 100 complete death); for phytotoxicity rating AMARE: post-emerge
# Method in brief: as §1
# [19] = tested on: sicklepod (Cassia obtusifolia, CASOB); test: as above; details: 14 days after application; for Post-emerge Herbicidal Activity CASOB: phytotoxicity rating 0-100 (0 no damage, 100 complete death); for phytotoxicity rating CASOB: post-emerge, rating scale 0-100
# Method in brief: as §1
# [20] = tested on: velvetleaf (Abutilon theophrasti, ABUTH); test: as above; details: 14 days after application; for Post-emerge Herbicidal Activity ABUTH: phytotoxicity rating 0-100 (0 no damage, 100 complete death); for phytotoxicity rating ABUTH: post-emerge, rating scale 0-100
# Method in brief: as §1
# [21] = tested on: field corn (Zea mays L., var. Dekalb 535, CORN); test: Post-emerge test, crop safety; details: 14 days after application; for Post-emerge Herbicidal Activity CORN (crop damage): phytotoxicity rating 0-100 (0 no damage, 100 complete death); for phytotoxicity rating CORN (crop damage): post-emerge, rating scale 0-100
# Method in brief: (§3)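 Plants grown in 10 cm pots of sandy loam mix received acetone-dissolved compounds through a moving flat-fan nozzle. Doses ranged from 15 to 1000 g ai/ha. Pre-emerge pots were seeded one day earlier, post-emerge pots 8–21 days earlier. Fourteen days on, each pot was graded 0–100 for damage.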
# [22] = tested on: upland rice (Oryza sp., var. Tebonnet, RICE); test: Post-emerge test, crop safety; details: 14 days after application; for Post-emerge Herbicidal Activity RICE (crop damage): phytotoxicity rating 0-100 (0 no damage, 100 complete death); for phytotoxicity rating RICE (crop damage): post-emerge, rating scale 0-100
# Method in brief: as §3
# [23] = 250 g ai/ha, phytotoxicity rating 0-100, 14 days after application
# [24] = 250 g ai/ha, crop damage rating 0-100, 14 days after application
smiles,measurement,setting,value
CCOC(=O)C(C)Oc1c(Cl)cc(F)c(-n2c(=O)cc(C(F)(F)F)n(C)c2=O)c1N (centres unmarked) [Compound 1-60],"Pre-emerge Herbicidal Activity AMARE (phytotoxicity rating, scale 0-100)",[1]; 63 g ai/ha,100
same,"Pre-emerge Herbicidal Activity AMARE (phytotoxicity rating, scale 0-100)",[1]; 250 g ai/ha,100
same,"Pre-emerge Herbicidal Activity ECHCG (phytotoxicity rating, scale 0-100)",[2]; 63 g ai/ha,50
same,"Pre-emerge Herbicidal Activity ECHCG (phytotoxicity rating, scale 0-100)",[2]; 250 g ai/ha,95
same,"Pre-emerge Herbicidal Activity SETVI (phytotoxicity rating, scale 0-100)",[3]; 63 g ai/ha,95
same,"Pre-emerge Herbicidal Activity SETVI (phytotoxicity rating, scale 0-100)",[3]; 250 g ai/ha,100
same,"Pre-emerge Herbicidal Activity IPOHE (phytotoxicity rating, scale 0-100)",[4]; 63 g ai/ha,90
same,"Pre-emerge Herbicidal Activity IPOHE (phytotoxicity rating, scale 0-100)",[4]; 250 g ai/ha,100
same,"Pre-emerge Herbicidal Activity SORHA (phytotoxicity rating, scale 0-100)",[5]; 63 g ai/ha,80
same,"Pre-emerge Herbicidal Activity SORHA (phytotoxicity rating, scale 0-100)",[5]; 250 g ai/ha,100
same,"Pre-emerge Herbicidal Activity CHEAL (phytotoxicity rating, scale 0-100)",[6]; 63 g ai/ha,100
same,"Pre-emerge Herbicidal Activity CHEAL (phytotoxicity rating, scale 0-100)",[6]; 250 g ai/ha,100
same,"Pre-emerge Herbicidal Activity DIGSA (phytotoxicity rating, scale 0-100)",[7]; 63 g ai/ha,95
same,"Pre-emerge Herbicidal Activity DIGSA (phytotoxicity rating, scale 0-100)",[7]; 250 g ai/ha,100
same,"Pre-emerge Herbicidal Activity CASOB (phytotoxicity rating, scale 0-100)",[8]; 63 g ai/ha,70
same,"Pre-emerge Herbicidal Activity CASOB (phytotoxicity rating, scale 0-100)",[8]; 250 g ai/ha,100
same,"Pre-emerge Herbicidal Activity ABUTH (phytotoxicity rating, scale 0-100)",[9]; 63 g ai/ha,100
same,"Pre-emerge Herbicidal Activity ABUTH (phytotoxicity rating, scale 0-100)",[9]; 250 g ai/ha,100
same,"Pre-emerge crop damage CORN (phytotoxicity rating, scale 0-100)",[10]; 63 g ai/ha,50
same,"Pre-emerge crop damage CORN (phytotoxicity rating, scale 0-100)",[10]; 250 g ai/ha,95
same,"Pre-emerge crop damage RICE (phytotoxicity rating, scale 0-100)",[11]; 63 g ai/ha,40
same,"Pre-emerge crop damage RICE (phytotoxicity rating, scale 0-100)",[11]; 250 g ai/ha,95
same,Post-emerge Herbicidal Activity ECHCG,[12]; 63 g ai/ha,0
same,Post-emerge Herbicidal Activity ECHCG,[12]; 250 g ai/ha,20
same,Post-emerge Herbicidal Activity SETVI,[13]; 63 g ai/ha,0
same,Post-emerge Herbicidal Activity SETVI,[13]; 250 g ai/ha,10
same,Post-emerge Herbicidal Activity IPOHE,[14]; 63 g ai/ha,90
same,Post-emerge Herbicidal Activity IPOHE,[14]; 250 g ai/ha,100
same,Post-emerge Herbicidal Activity SORHA,[15]; 63 g ai/ha,0
same,Post-emerge Herbicidal Activity SORHA,[15]; 250 g ai/ha,20
same,Post-emerge Herbicidal Activity CHEAL,[16]; 63 g ai/ha,99
same,Post-emerge Herbicidal Activity CHEAL,[16]; 250 g ai/ha,100
same,Post-emerge Herbicidal Activity DIGSA,[17]; 63 g ai/ha,0
same,Post-emerge Herbicidal Activity DIGSA,[17]; 250 g ai/ha,50
same,Post-emerge Herbicidal Activity AMARE,[18]; 63 g ai/ha,90
same,Post-emerge Herbicidal Activity AMARE,[18]; 250 g ai/ha,100
same,Post-emerge Herbicidal Activity CASOB,[19]; 63 g ai/ha,50
same,Post-emerge Herbicidal Activity CASOB,[19]; 250 g ai/ha,90
same,Post-emerge Herbicidal Activity ABUTH,[20]; 63 g ai/ha,100
same,Post-emerge Herbicidal Activity ABUTH,[20]; 250 g ai/ha,100
same,Post-emerge Herbicidal Activity CORN (crop damage),[21]; 63 g ai/ha,0
same,Post-emerge Herbicidal Activity CORN (crop damage),[21]; 250 g ai/ha,50
same,Post-emerge Herbicidal Activity RICE (crop damage),[22]; 63 g ai/ha,10
same,Post-emerge Herbicidal Activity RICE (crop damage),[22]; 250 g ai/ha,40
Nn1c(C(F)(F)F)cc(=O)n(-c2c(F)cc(Cl)c(O)c2NC(=O)c2ccc3ccccc3c2)c1=O [Compound 2-192],Pre-emerge Herbicidal Activity AMARE,[1]; [23],90
same,Pre-emerge Herbicidal Activity ECHCG,[2]; [23],0
same,Pre-emerge Herbicidal Activity SETVI,[3]; [23],0
same,Pre-emerge Herbicidal Activity IPOHE,[4]; [23],30
same,Pre-emerge Herbicidal Activity SORHA,[5]; [23],0
same,Pre-emerge Herbicidal Activity CHEAL,[6]; [23],80
same,Pre-emerge Herbicidal Activity DIGSA,[7]; [23],0
same,Pre-emerge Herbicidal Activity CASOB,[8]; [23],0
same,Pre-emerge Herbicidal Activity ABUTH,[9]; [23],85
same,Pre-emerge Herbicidal Activity CORN,[10]; [24],0
same,Pre-emerge Herbicidal Activity RICE,[11]; [24],0
same,phytotoxicity rating ECHCG,[12]; 63 g ai/ha,0
same,phytotoxicity rating ECHCG,[12]; 250 g ai/ha,0
same,phytotoxicity rating SETVI,[13]; 63 g ai/ha,0
same,phytotoxicity rating SETVI,[13]; 250 g ai/ha,0
same,phytotoxicity rating IPOHE,[14]; 63 g ai/ha,50
same,phytotoxicity rating IPOHE,[14]; 250 g ai/ha,70
same,phytotoxicity rating SORHA,[15]; 63 g ai/ha,0
same,phytotoxicity rating SORHA,[15]; 250 g ai/ha,0
same,phytotoxicity rating CHEAL,[16]; 63 g ai/ha,60
same,phytotoxicity rating CHEAL,[16]; 250 g ai/ha,50
same,phytotoxicity rating DIGSA,[17]; 63 g ai/ha,0
same,phytotoxicity rating DIGSA,[17]; 250 g ai/ha,0
same,phytotoxicity rating AMARE,"[18]; 63 g ai/ha, rating scale 0-100 (0 no damage, 100 complete death)",70
same,phytotoxicity rating AMARE,"[18]; 250 g ai/ha, rating scale 0-100",70
same,phytotoxicity rating CASOB,[19]; 63 g ai/ha,40
same,phytotoxicity rating CASOB,[19]; 250 g ai/ha,60
same,phytotoxicity rating ABUTH,[20]; 63 g ai/ha,85
same,phytotoxicity rating ABUTH,[20]; 250 g ai/ha,85
same,phytotoxicity rating CORN (crop damage),[21]; 63 g ai/ha,5
same,phytotoxicity rating CORN (crop damage),[21]; 250 g ai/ha,15
same,phytotoxicity rating RICE (crop damage),[22]; 63 g ai/ha,0
same,phytotoxicity rating RICE (crop damage),[22]; 250 g ai/ha,20
